Reference: patent US6277866A, “1-benzyl-4[(5,6-dimethoxy-2-fluoro-1-indanon)-2-yl]methylpiperidine” (priority 1999, dated 2001)
Counter-ions that a name gives are not always drawn.

Molecular target: T1, acetylcholinesterase (Rattus norvegicus, UniProt P37136)
T1 construct: Using a rat brain homogenate as a source of acetylcholinesterase; from tissue; host or cells: rat brain homogenate
Test: Inhibitory action on acetylcholinesterase in vitro (rat brain homogenate, Ellman method)
Type: biochemical
Details: acetylthiocholine substrate, DTNB, 412 nm, compounds dissolved in physiological saline, read-out: 50% inhibitory concentration (IC50) on acetylcholinesterase
Method: Inhibitory action on acetylcholinesterase in vitro
Using a rat brain homogenate as a source of acetylcholinesterase, its esterase activity was measured in accordance with the method of Ellman et al^1). Acetylthiocholine as the substrate, sample and DTNB (5,5'-dithiobis(2-nitrobenzoic acid)) were added to the homogenate and incubated, whereby the produced thiocholine was reacted with DTNB and the resulting yellow product was measured for the change of absorbance at 412 nm to determine the acetylcholinesterase activity.
Each of the following compounds was used after dissolved in physiological saline.

T1 sequence (P37136 32-614): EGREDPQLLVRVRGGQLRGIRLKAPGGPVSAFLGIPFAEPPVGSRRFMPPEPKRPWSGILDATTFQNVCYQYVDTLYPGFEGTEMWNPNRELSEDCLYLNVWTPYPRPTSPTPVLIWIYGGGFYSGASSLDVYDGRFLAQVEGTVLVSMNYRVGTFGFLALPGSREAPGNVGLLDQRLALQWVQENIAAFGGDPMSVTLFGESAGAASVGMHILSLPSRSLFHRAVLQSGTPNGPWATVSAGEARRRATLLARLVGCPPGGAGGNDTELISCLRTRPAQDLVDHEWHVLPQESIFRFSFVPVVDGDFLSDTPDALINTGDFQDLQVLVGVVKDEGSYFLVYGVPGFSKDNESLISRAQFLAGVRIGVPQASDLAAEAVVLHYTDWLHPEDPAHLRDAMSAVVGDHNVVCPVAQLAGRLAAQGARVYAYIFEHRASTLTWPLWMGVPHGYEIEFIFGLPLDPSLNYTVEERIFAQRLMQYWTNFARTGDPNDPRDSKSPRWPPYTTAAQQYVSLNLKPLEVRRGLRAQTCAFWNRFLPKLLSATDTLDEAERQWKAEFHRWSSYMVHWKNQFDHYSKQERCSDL

COc1cc2c(cc1OC)C(=O)C(F)(CC1CCN(Cc3ccccc3)CC1)C2 (stereo not shown) [Compound 1, 1-benzyl-4-[5,6-dimethoxy-2-fluoro-1-indanon)-2-yl]methylpiperidine hydrochloride]
IC50: 1.3 nM
